Values quoted from earlier work in patent US11904118B2, “Drug delivery medical device” (Micell Medtech Inc., priority 2010, dated 2024).

Biological target: FKBP12 (Homo sapiens, UniProt P62942)
Sequence (P62942 whole entry, species assumed): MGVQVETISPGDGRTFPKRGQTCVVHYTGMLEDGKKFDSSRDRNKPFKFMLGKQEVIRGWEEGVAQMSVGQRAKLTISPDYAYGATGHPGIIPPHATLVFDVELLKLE

Row | SMILES | FKBP12 binding [nM] | FKBP12 binding (nM)
1 | CO[C@H]1C[C@@H]2CC[C@@H](C)[C@@](O)(O2)C(=O)C(=O)N2CCCC[C@H]2C(=O)O[C@H]([C@H](C)C[C@@H]2CC[C@@H](OCCO)[C@H](OC)C2)CC(=O)[C@H](C)/C=C(\C)[C@@H](O)[C@@H](OC)C(=O)[C@H](C)C[C@H](C)/C=C/C=C/C=C/1C [Everolimus, 40-O-(2-Hydroxyethyl)rapamycin] | 1.8 to 2.6 | –
2 | CC[C@@H]1/C=C(\C)C[C@H](C)C[C@H](OC)[C@H]2O[C@@](O)(C(=O)C(=O)N3CCCC[C@H]3C(=O)O[C@H](/C(C)=C/[C@@H]3CC[C@H](Cl)[C@H](OC)C3)[C@H](C)[C@@H](O)CC1=O)[C@H](C)C[C@@H]2OC [Pimecrolimus] | – | about 1.2 nM
3 | C=CC[C@@H]1/C=C(\C)C[C@H](C)C[C@H](OC)[C@H]2O[C@@](O)(C(=O)C(=O)N3CCCC[C@H]3C(=O)O[C@H](/C(C)=C/[C@@H]3CC[C@@H](O)[C@H](OC)C3)[C@H](C)[C@@H](O)CC1=O)[C@H](C)C[C@@H]2OC [Tacrolimus] | 0.2 to 0.4 | –
4 | CO[C@H]1C[C@@H]2CC[C@@H](C)[C@@](O)(O2)C(=O)C(=O)N2CCCC[C@H]2C(=O)O[C@H]([C@H](C)C[C@@H]2CC[C@@H](OC(=O)C(C)(CO)CO)[C@H](OC)C2)CC(=O)[C@H](C)/C=C(\C)[C@@H](O)[C@@H](OC)C(=O)[C@H](C)C[C@H](C)/C=C/C=C/C=C/1C [Temsirolimus, 42-[3-hydroxy-2-(hydroxymethyl)-2-methylpropanoate]rapamycin] | – | about the same as Sirolimus
5 | CO[C@H]1C[C@@H]2CC[C@@H](C)[C@@](O)(O2)C(=O)C(=O)N2CCCC[C@H]2C(=O)O[C@H]([C@H](C)C[C@@H]2CC[C@H](n3cnnn3)[C@H](OC)C2)CC(=O)[C@H](C)/C=C(\C)[C@@H](O)[C@@H](OC)C(=O)[C@H](C)C[C@H](C)/C=C/C=C/C=C/1C [Zotarolimus] | 2.0 to 3.2 | –
